# Data reported in US20080045514A1 (Cytovia, Inc., priority 2006, published 2008).
# What was measured:
# Type in all cases: cell-based
# [1] = system: human breast cancer cell line T-47D; assay: Caspase cascade activation (EC50), T-47D; settings: Homo sapiens; T47D cells; caspase cascade activation; read-out: caspase potency (EC50) T47D
# Description: (§1) Human breast cancer cell lines T-47D, human hepatocellular carcinoma cell line SNU398, human colon carcinoma cell line HCT116, human cancer cell line H1299, human Burkitt's lymphoma cell line Namalwa, human lymphoma cell line Raji, and human B cell lymphoblastoid cell line Ramos were grown according to media component mixtures designated by American Type Culture Collection+10% FCS (Invitrogen Corporation), in a 5% CO2-95% humidity incubator at 37° C. T-47D and H1299 cells were maintained at a cell density between 50 and 80% confluency at a cell density of 0.1 to 0.6×10^6 cells/mL. Cells were harvested at 600×g and resuspended at 0.65×10^6 cells/mL into appropriate media+10% FCS. An aliquot of 22.5 μL of cells was added to a well of a 384-well microtiter plate containing 2.5 μL of a 10% DMSO in RPMI-1640 media solution containing 0.16 to 100 μM of 3-(2-chlorophenyl)-6-(3,4-methylenedioxyphenyl)-7H-[1,2,4]triazolo[3,4-b][1,3,4]thiadiazine or other test compound (0.016 to 10 μM final). An aliquot of 22.5 μL of cells was added to a well of a 384-well microtiter plate containing 2.5 μL of a 10% DMSO in RPMI-1640 media solution without test compound as the control sample. The samples were mixed by agitation and then incubated at 37° C. for 48 h in a 5% CO2-95% humidity incubator. After incubation, the samples were removed from the incubator and 25 μL of a solution containing 14 μM of N—(Ac-DEVD)-N′-ethoxycarbonyl-R110 (SEQ ID No.:1) fluorogenic substrate (Cytovia, Inc.; WO99/18856), 20% sucrose (Sigma), 20 mM DTT (Sigma), 200 mM NaCl (Sigma), 40 mM Na PIPES buffer pH 7.2 (Sigma), and 500 μg/mL lysolecithin (Calbiochem) was added. The samples were mixed by agitation and incubated at room temperature. Using a fluorescent plate reader (Model SPECTRAfluor Plus, Tecan), an initial reading (T=0) was made approximately 1-2 min after addition of the substrate solution, employing excitation at 485 nm and emission at 530 nm, to determine the background fluorescence of the control sample. After the 3 h incubation, the samples were read for fluorescence as above (T=3 h). Calculation: The Relative Fluorescence Unit values (RFU) were used to calculate the sample readings as follows: RFU(T=3H)−Control RFU(T=0)=Net RFU(T=3h) The activity of caspase cascade activation was determined by the ratio of the net RFU value for 3-(2-chlorophenyl)-6-(3,4-methylenedioxyphenyl)-7H-[1,2,4]triazolo[3,4-b][1,3,4]thiadiazine (Example P) or other test compound to that of control samples. The EC50 (nM) was determined by a sigmoidal dose-response calculation (Prism 3.0, GraphPad Software Inc.).
# [2] = system: human hepatocellular carcinoma cell line SNU398; assay: Caspase cascade activation (EC50), SNU398; settings: Homo sapiens, SNU-398; SNU398 cells; caspase cascade activation; read-out: caspase potency (EC50) SNU398
# Description: as §1
# [3] = system: human colon carcinoma cell line HCT116; assay: Caspase cascade activation (EC50), HCT116; settings: Homo sapiens, HCT-116; HCT116 cells; caspase cascade activation; read-out: caspase potency (EC50) HCT116
# Description: as §1
# [4] = system: human Burkitt's lymphoma cell line Namalwa; assay: Caspase cascade activation (EC50), Namalwa; settings: Homo sapiens, Burkitts lymphoma cell; Namalwa cells; caspase cascade activation; read-out: caspase potency (EC50) Namalwa
# Description: as §1
Structure (SMILES),EC50 [1],EC50 [2],EC50 [3],EC50 [4]
"Cc1ccccc1-c1nnc2n1N=C(c1ccc(C(C)(C)C)cc1)CS2 [Example 51, 6-(4-tert-Butylphenyl)-3-(2-methylphenyl)-7H-[1,2,4]triazolo[3,4-b][1,3,4]thiadiazine]",> 10000 nM,> 10000 nM,> 10000 nM,> 10000 nM
"COc1ccccc1-c1nnc2n1N=C(c1ccc(NC(C)=O)c([N+](=O)[O-])c1)CS2 [Example 56, 6-(4-Acetamido-3-nitrophenyl)-3-(2-methoxyphenyl)-7H-[1,2,4]triazolo[3,4-b][1,3,4]thiadiazine]",476 nM,328 nM,506 nM,270 nM
"COc1cc(C2=Nn3c(nnc3-c3ccccc3OC)SC2)ccc1N [Example 57, 6-(4-Amino-3-methoxyphenyl)-3-(2-methoxyphenyl)-7H-[1,2,4]triazolo[3,4-b][1,3,4]thiadiazine]",2640 nM,2280 nM,2870 nM,2330 nM
"COc1ccccc1-c1nnc2n1N=C(c1ccc(N)c(N)c1)CS2 [Example 60, 6-(3,4-Diaminophenyl)-3-(2-methoxyphenyl)-7H-[1,2,4]triazolo[3,4-b][1,3,4]thiadiazine]",> 10000 nM,> 10000 nM,> 10000 nM,> 10000 nM
"Cc1ccc(C2=Nn3c(nnc3-c3ccccc3[S+](C)[O-])SC2)cc1 (stereo not drawn) [Example 72, 3-(2-Methylsulfinylphenyl)-6-(4-methylphenyl)-7H-[1,2,4]triazolo[3,4-b][1,3,4]thiadiazine]",> 10000 nM,> 10000 nM,> 10000 nM,> 10000 nM
"Cc1ccc(C2=Nn3c(nnc3-c3ccccc3N)SC2)cc1 [Example 74, 3-(2-Aminophenyl)-6-(4-methylphenyl)-7H-[1,2,4]triazolo[3,4-b][1,3,4]thiadiazine]",> 10000 nM,529 nM,557 nM,507 nM
"COc1ccccc1-c1nnc2n1N=C(c1cc(I)c(N)c(I)c1)CS2 [Example 79, 6-(4-Amino-3,5-diiodophenyl)-3-(2-methoxyphenyl)-7H-[1,2,4]triazolo[3,4-b][1,3,4]thiadiazine]",907 nM,562 nM,1250 nM,304 nM
"COc1ccccc1-c1nnc2n1N=C(c1ccn(C)c1)CS2 [Example 86, 3-(2-Methoxyphenyl)-6-(1-methyl-1H-pyrrol-3-yl)-7H-[1,2,4]triazolo[3,4-b][1,3,4]thiadiazine]",525 nM,380 nM,1320 nM,320 nM
"COc1ccccc1-c1nnc2n1N=C(c1ccc(C#N)cc1)CS2 [Example 87, 6-(4-Cyanophenyl)-3-(2-methoxyphenyl)-7H-[1,2,4]triazolo[3,4-b][1,3,4]thiadiazine]",3330 nM,2550 nM,5090 nM,2280 nM
"COc1ccccc1-c1nnc2n1N=C(c1ccc(C(=O)O)cc1)CS2 [Example 89, 6-(4-Carboxyphenyl)-3-(2-Methoxyphenyl)-7H-[1,2,4]triazolo[3,4-b][1,3,4]thiadiazine]",> 10000 nM,> 10000 nM,> 10000 nM,> 10000 nM

# Now from value to compound:
EC50 [1],EC50 [2],EC50 [3],EC50 [4],Structure (SMILES)
> 10000 nM,5650 nM,> 10000 nM,5590 nM,"COc1cc(C)c(Cl)cc1C1=Nn2c(nnc2-c2ccccc2OC)SC1 [Example 49, 6-(5-Chloro-2-methoxy-4-methylphenyl)-3-(2-methoxyphenyl)-7H-[1,2,4]triazolo[3,4-b][1,3,4]thiadiazine]"
549 nM,530 nM,564 nM,500 nM,"COc1ccccc1-c1nnc2n1N=C(c1ccc(OC(F)(F)F)cc1)CS2 [Example 50, 3-(2-Methoxyphenyl)-6-(4-(trifluoromethoxy)phenyl)-7H-[1,2,4]triazolo[3,4-b][1,3,4]thiadiazine]"
> 10000 nM,> 10000 nM,> 10000 nM,> 10000 nM,"CCN(CC)S(=O)(=O)c1ccc(C2=Nn3c(nnc3-c3ccccc3C)SC2)cc1 [Example 52, 6-(4-(N,N-Diethylaminosulfonyl)phenyl)-3-(2-methylphenyl)-7H-[1,2,4]triazolo[3,4-b][1,3,4]thiadiazine]"
> 10000 nM,> 10000 nM,> 10000 nM,> 10000 nM,"Cc1ccccc1-c1nnc2n1N=C(c1ccc(C)c([N+](=O)[O-])c1)CS2 [Example 53, 6-(4-Methyl-3-nitrophenyl)-3-(2-methylphenyl)-7H-[1,2,4]triazolo[3,4-b][1,3,4]thiadiazine]"
554 nM,306 nM,441 nM,290 nM,"COc1ccccc1-c1nnc2n1N=C(c1ccc(C)c([N+](=O)[O-])c1)CS2 [Example 54, 3-(2-Methoxyphenyl)-6-(4-methyl-3-nitrophenyl)-7H-[1,2,4]triazolo[3,4-b][1,3,4]thiadiazine]"
2040 nM,1870 nM,> 10000 nM,> 10000 nM,"COc1ccccc1-c1nnc2n1N=C(c1ccc(Cl)c([N+](=O)[O-])c1)CS2 [Example 55, 6-(4-Chloro-3-nitrophenyl)-3-(2-methoxyphenyl)-7H-[1,2,4]triazolo[3,4-b][1,3,4]thiadiazine]"
> 10000 nM,> 10000 nM,> 10000 nM,> 10000 nM,"COc1ccccc1C1=Nn2c(nnc2-c2ccccc2OC)SC1 [Example 64, 3-(2-Methoxyphenyl)-6-(2-methoxylphenyl)-7H-[1,2,4]triazolo[3,4-b][1,3,4]thiadiazine]"
175 nM,43 nM,58 nM,61 nM,"COc1cc(-c2nnc3n2N=C(c2ccc(N(C)C)cc2)CS3)cc(OC)c1OC [Example 67, 6-(4-Dimethylaminophenyl)-3-(3,4,5-trimethoxyphenyl)-7H-[1,2,4]triazolo[3,4-b][1,3,4]thiadiazine]"
> 10000 nM,> 1000 nM,> 10000 nM,> 10000 nM,"Cc1ccc(C2=Nn3c(nnc3-c3ccccc3S(C)(=O)=O)SC2)cc1 [Example 73, 3-(2-Methylsulfonylphenyl)-6-(4-methylphenyl)-7H-[1,2,4]triazolo[3,4-b][1,3,4]thiadiazine]"
259 nM,51 nM,124 nM,73 nM,"COc1ccccc1-c1nnc2n1N=C(c1cc(Br)c(N)c(Br)c1)CS2 [Example 78, 6-(4-Amino-3,5-dibromophenyl)-3-(2-methoxyphenyl)-7H-[1,2,4]triazolo[3,4-b][1,3,4]thiadiazine]"
605 nM,500 nM,370 nM,497 nM,"COc1ccccc1-c1nnc2n1N=C(c1cccc(C)c1)CS2 [Example 82, 3-(2-Methoxyphenyl)-6-(3-methylphenyl)-7H-[1,2,4]triazolo[3,4-b][1,3,4]thiadiazine]"
2540 nM,523 nM,683 nM,332 nM,"Cc1ccc(C2=Nn3c(nnc3-c3ccoc3C)SC2)cc1 [Example 83, 3-(2-Methylfuran-3-yl)-6-(4-methylphenyl)-7H-[1,2,4]triazolo[3,4-b][1,3,4]thiadiazine]"
274 nM,253 nM,298 nM,209 nM,"COC(=O)c1ccc(C2=Nn3c(nnc3-c3ccccc3OC)SC2)cc1 [Example 85, 6-(4-Methoxycarbonylphenyl)-3-(2-methoxyphenyl)-7H-[1,2,4]triazolo[3,4-b][1,3,4]thiadiazine]"
5330 nM,2530 nM,2800 nM,1530 nM,"COc1ccccc1-c1nnc2n1NC(c1ccc(C)cc1)CS2 (stereo not drawn) [Example 88, 5,6-Dihydro-3-(2-methoxyphenyl)-6-(4-methylphenyl)-7H-[1,2,4]triazolo[3,4-b][1,3,4]thiadiazine]"
